Where a name gives a salt, the structure may show the parent alone.

One assay concerns the target T1, mouse 5-HT3 receptor (Mus musculus, UniProt P23979).
T1 construct: host or cells: mouse neuroblastoma cells (N1E-155 as printed)
T1 sequence (P23979 24-489): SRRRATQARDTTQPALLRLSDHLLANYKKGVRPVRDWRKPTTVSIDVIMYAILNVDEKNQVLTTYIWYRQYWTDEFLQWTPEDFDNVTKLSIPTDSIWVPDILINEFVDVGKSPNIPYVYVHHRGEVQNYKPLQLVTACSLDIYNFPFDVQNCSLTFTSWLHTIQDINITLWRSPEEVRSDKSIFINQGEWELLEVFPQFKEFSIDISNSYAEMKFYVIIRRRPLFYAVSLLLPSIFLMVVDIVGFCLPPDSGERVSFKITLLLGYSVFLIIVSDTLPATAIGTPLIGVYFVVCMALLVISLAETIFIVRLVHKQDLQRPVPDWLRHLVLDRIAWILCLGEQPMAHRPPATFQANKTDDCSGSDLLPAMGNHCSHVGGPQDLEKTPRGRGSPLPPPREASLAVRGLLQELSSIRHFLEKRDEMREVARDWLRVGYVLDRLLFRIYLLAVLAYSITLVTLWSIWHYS
Kind of assay: Compound affinity for the mouse 5-HT3 receptor (Assay C), [3H]-GR65630 radioligand binding, Novoscreen. Particulars: Assay C; single concentration 100 nM, in duplicate; [3H]-GR65630; read-out: Mouse % Inhibition @ 100 nM. As to the method:
Compound Affinity for the Mouse 5-HT3Receptor (Assay C)
Compounds were tested by Novoscreen Biosciences Corporation, 7170 Standard Drive, Hanover, Md. in a radioligand binding assay using the mouse 5-HT3 receptor derived from mouse neuroblastoma cells and [^3H]-GR65630 (ligand). The non-specific binding determinant was MDL 72222. Compounds were tested at a single concentration of 100 nM in duplicate. Percent inhibition is reported. In order to evaluate the relative affinity of the various compounds for the 5-HT3 receptor, N1E-155 cell lines were developed to express the target protein. For binding, these cells were homogenized, centrifuged and washed with buffer (20 mM HEPES, 150 mM NaCl, pH 7.4) then suspended in 0.5 mL of buffer and [^3H]-GR65630 added at a concentration of 3.5×10^−10 M. An initial single concentration of 10^−7 M of the test compound was then added. Incubation was carried out at room temperature for 60 minutes at 25° C. then was terminated by rapid removal of the incubation medium. Radioactivity was assessed using liquid scintillation spectrophotometry after exposure to scintillation cocktail for at least three hours. […] Ki values were then calculated from the Cheng-Prusoff equation. In all of the above binding studies the non-specific determinant was MDL-72222 (1.0 μM).
(§1) In the table below, the assay in which the data were obtained is shown (as A, B. C, or D) along with the data.
`CCN1C2CCCC1CC(NC(=O)c1cccc3oc(C4CC4)nc13)C2` (stereo not drawn) [Example 21, N-(9-Ethyl-9-azabicyclo[3.3.1]non-3-yl)-2-cyclopropylbenzoxazole-4-carboxamide Hydrochloride]: the inhibition at 0.1 µM was 34.9%. As for `CN1C2CCCC1CC(NC(=O)c1cccc3oc(C4CCCCC4)nc13)C2` (stereo not drawn) [Example 15, Endo-N-(9-Methyl-9-azabicyclo[3.3.1]non-3-yl)-2-cyclohexylbenzoxazole-4-carboxamide Hydrochloride], the inhibition at 0.1 µM came out at 105%.

`O=C(N[C@@H]1CN2CCC1CC2)c1cccc2oc(C3CCCC3)nc12` [Example 6, (S)—N-(1-Azabicyclo[2.2.2]oct-3-yl)-2-cyclopentylbenzoxazole-4-carboxamide Hydrochloride]: the inhibition at 0.1 µM amounted to 90.2%. Turning to `O=C(N[C@@H]1CN2CCC1CC2)c1cccc2oc(C3CCCCC3)nc12` [Example 16, (S)—N-(1-Azabicyclo[2.2.2]oct-3-yl)-2-cyclohexylbenzoxazole-4-carboxamide Hydrochloride], the inhibition at 0.1 µM was found to be 94.1%.

The assay is the same for the next values; noted with them: read-out: Mouse % Inhibition @ 100 nM.
Turning to `CC1CC1c1nc2c(C(=O)NC3CN4CCC3CC4)cccc2o1` (racemic) [Example 14, (S)—N-(1-Azabicyclo[2.2.2]oct-3-yl)-2-(2-methylcyclopropyl)benzoxazole-4-carboxamide Hydrochloride], the inhibition at 0.1 µM turned out to be 93.6%.

The next assay addresses T2, human 5-HT3 receptor (Homo sapiens, UniProt P46098).
T2 sequence (P46098 24-478): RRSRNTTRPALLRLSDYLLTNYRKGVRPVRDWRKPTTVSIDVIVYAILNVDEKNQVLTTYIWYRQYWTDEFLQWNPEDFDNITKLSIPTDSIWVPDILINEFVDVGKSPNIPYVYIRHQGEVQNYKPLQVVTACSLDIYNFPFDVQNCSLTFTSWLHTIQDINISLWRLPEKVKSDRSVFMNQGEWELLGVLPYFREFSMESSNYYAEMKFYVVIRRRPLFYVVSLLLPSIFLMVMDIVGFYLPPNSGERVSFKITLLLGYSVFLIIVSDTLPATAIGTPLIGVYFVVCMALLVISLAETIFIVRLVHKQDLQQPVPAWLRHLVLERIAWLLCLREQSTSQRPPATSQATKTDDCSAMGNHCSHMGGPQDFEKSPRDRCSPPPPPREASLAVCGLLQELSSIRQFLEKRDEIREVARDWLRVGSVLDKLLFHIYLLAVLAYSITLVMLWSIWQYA
Nature of the assay: Compound affinity for the human 5-HT3 receptor (Assay B), SPA radioligand binding with [9-methyl-3H]BRL-43694.
Conditions: not given
Also on record: purchased Perkin Elmer. As to the method:
Compound Affinity for the Human 5-HT3 Receptor (Assay B)
The relative affinity of the various compounds for the human 5-HT3 receptor was measured in a radioligand binding assay, using a scintillation proximity assay (SPA) format. Test compounds were dissolved to 10 mM in 100% DMSO, then serially diluted at 10× assay concentrations in 100% DMSO in 96-well polypropylene plates and further diluted to 4× assay concentrations with the assay buffer. Samples were incubated in 50 mM Tris-HCl, pH 7.5, 3 mM MgCl2, 1 mM EDTA and 10% DMSO with 10 nM [9-methyl-3H]BRL-43694 (Perkin Elmer), 3 μg of human 5-HT3 receptor membranes (Perkin Elmer) and 0.5 mg/mL SPA beads (WGA PVT, Amersham Biosciences) in a final volume of 0.2 mL. Binding reactions were set up in wells of PicoPlates-96 (Perkin Elmer) by adding consecutively 50 μL of each competing compound or buffer, SPA beads, the radioligand and 5-HT3 receptor membranes. After 60-min incubation at room temperature on a Nutator mixer, plates were centrifuged for 15 min at 1,500 rpm, followed by incubation in the dark for 30 min. Radioactivity was counted in the TopCount microplate counter (Perkin Elmer) for 5 min. Total binding control contained buffer only; nonspecific binding was determined in the presence of 30 μM MDL-72222. Specific binding was determined by subtracting nonspecific binding from total binding. All experiments were performed in duplicate using ten concentrations of a competing ligand, with ondansetron included as a control in every run. IC50 values were determined from specific binding data using XLfit4.1 curve fitting software from IDBS Ltd. Ki values were then calculated from the Cheng-Prusoff equation.
as §1
`CN1[C@@H]2CCC[C@H]1C[C@@H](NC(=O)c1cccc3oc(C4CCNCC4)nc13)C2` [Example 27, Endo-N-(9-methyl-9-azabicyclo[3.3.1]non-3-yl)-2-(piperidin-4-yl)benzoxazole-4-carboxamide Dihydrochloride]: the Ki was determined as 41 nM.

`CN1CCCCC1c1nc2c(C(=O)N[C@H]3C[C@H]4CCC[C@@H](C3)N4C)cccc2o1` (mixture of isomers) [Example 33, Endo-N-(9-Methyl-9-azabicyclo[3.3.1]nonan-3-yl)-2-(1-methylpiperidin-2-yl)benzoxazole-4-carboxamide Hydrochloride] had an inhibition constant Ki of 21.6 nM.

The compound `CN1CCC(c2nc3c(C(=O)N[C@@H]4CN5CCC4CC5)cccc3o2)CC1` [Example 30, (S)—N-(1-Azabicyclo[2.2.2]oct-3-yl)-2-(1-methylpiperidin-4-yl)benzoxazole-4-carboxamide Dihydrochloride Dihydrochloride] showed a Ki of 83 nM. `CN1C2COCC1CC(NC(=O)c1cccc3oc(C4CCCC4)nc13)C2` (stereo not drawn) [Example 32, N-(9-methyl-3-oxa-9-azabicyclo[3.3.1]non-7-yl)-2-(cyclopentyl-4-yl)benzoxazole-4-carboxamide Hydrochloride] returned an inhibition constant (Ki) of 81.9 nM.

With `CN1CCC(c2nc3c(C(=O)N[C@H]4C[C@H]5CCC[C@@H](C4)N5C)cccc3o2)CC1` [Example 29, Endo-N-(9-methyl-9-azabicyclo[3.3.1]non-3-yl)-2-(1-methylpiperidin-4-yl)benzoxazole-4-carboxamide Dihydrochloride], the inhibitory constant (Ki) turned out to be 28 nM. In turn, `O=C(NC1CC2CCCC(C1)N2)c1cccc2oc(C3CC3)nc12` (stereo not drawn) [Example 36, N-(9-Azabicyclo[3.3.1]non-3-yl)-2-cyclopropylbenzoxazole-4-carboxamide Hydrochloride] returned a Ki of 6.3 nM. Turning to `C[C@H]1OC(=O)N(C)C1c1nc2c(C(=O)NC3CC4CCCC(C3)N4C)cccc2o1` (stereo partly drawn) [Example 42, Endo-N-(9-methyl-9-azabicyclo[3.3.1]nonan-3-yl)-2-((4S,5R/4R,5S)-3,5-dimethyl-2-oxo-oxazolidin-4-yl)benzoxazole-4-carboxamide], the affinity, expressed as Ki, was 24.9 nM. Still for that read-out and setting: as for `CCN(CC)Cc1nc2c(C(=O)N[C@H]3C[C@H]4CCC[C@@H](C3)N4C)cccc2o1` [Example 41, Endo-N-(9-Methyl-9-azabicyclo[3.3.1]nonan-3-yl)-2-(diethylaminomethyl)benzoxazole-4-carboxamide Hydrochloride], the figure is 15.3 nM; as for `CN1[C@@H]2CCC[C@H]1C[C@@H](NC(=O)c1cccc3oc(CN4CCOCC4)nc13)C2` [Example 39, Endo-N-(9-Methyl-9-azabicyclo[3.3.1]nonan-3-yl)-2-(morpholinomethyl)benzoxazole-4-carboxamide Hydrochloride], 77.1 nM.

The assay is the same for the next values; noted with them: Assay B; 10 μM.
For the compound `O=C(N[C@@H]1CN2CCC1CC2)c1cccc2oc(CN3CCOCC3)nc12` [Example 38, (S)—N-(Azabicyclo[2.2.2]oct-3-yl)-2-(morpholinomethyl)benzoxazole-4-carboxamide Hydrochloride], the inhibition at 10 µM was found to be 74%.

Staying with this assay, now noted: Assay B; SPA, [9-methyl-3H]BRL-43694; Cheng-Prusoff; read-out: Human 5HT3 Ki.
As for `CN1[C@@H]2CCC[C@H]1C[C@@H](NC(=O)c1cccc3nc(C(C)(C)C)oc13)C2` [Example 37, Endo-N-(9-methyl-9-azabicyclo[3.3.1]non-3-yl)-2-tert-butyl benzoxazole-7-carboxamide Hydrochloride], the Ki is 166 nM.

Take `CCN(CC)Cc1nc2c(C(=O)NC3CN4CCC3CC4)cccc2o1` [Example 40, (S)—N-(Azabicylco[2.2.2]oct-3-yl)-2-(diethylaminomethyl)benzoxazole-4-carboxamide Hydrochloride]: the Ki was 129 nM. Still for that read-out and setting: the value for `O=C(N[C@@H]1CN2CCC1CC2)c1cccc2oc(C3CCNCC3)nc12` [Example 28, (S)—N-(1-Azabicyclo[2.2.2]oct-3-yl)-2-(piperidin-4-yl)benzoxazole-4-carboxamide Dihydrochloride] was 111 nM; that for `O=C(N[C@@H]1CN2CCC1CC2)c1cccc2oc(C3CCOCC3)nc12` [Example 25, (S)—N-(1-Azabicyclo[2.2.2]oct-3-yl)-2-(tetrahydro-2H-pyran-4-yl)benzoxazole-4-carboxamide Hydrochloride] was 126 nM.

Turning to `CC(=O)N1CCC(c2nc3c(C(=O)N[C@@H]4CN5CCC4CC5)cccc3o2)CC1` [Example 31, (S)—N-(1-Azabicyclo[2.2.2]oct-3-yl)-2-(1-acetylpiperidin-4-yl)benzoxazole-4-carboxamide Hydrochloride], the Ki worked out at 356 nM. For `CN1[C@@H]2CCC[C@H]1C[C@@H](NC(=O)c1cccc3oc(C45CCN(CC4)CC5)nc13)C2` [Example 26, Endo-N-(9-Methyl-9-azabicyclo[3.3.1]nonan-3-yl)-2-(quinuclidin-4-yl)benzoxazole-4-carboxamide Dihydrochloride], the Ki was 173 nM.

In general, inhibition refers to the change of the read-out against control, counted positive when it falls. One may read the Ki as the dissociation constant of the complex between target and ligand, obtained from inhibition or displacement.

Values taken from patent publication US8278301B2, “2-alkylbenzoxazole carboxamides as 5HT3 modulators” (Albany Molecular Research, Inc., priority 2006, dated 2012).
